Literature values, collected in patent US20250369985A1, “METHOD FOR DETERMINING THE THERAPEUTIC REGIMEN FOR AN INDIVIDUAL AND ITS USE” (MOSAIQUES DIAGNOSTICS AND THERAPEUTICS AG, priority 2022, published 2025).
Read-outs that look alike come from different tables or passages of the source.

System: urinary proteins/peptides (71 biomarkers of CD71 classifier)

Measured: f (fold-change of the abundance)

CCOc1nc2cccc(C(=O)O)c2n1Cc1ccc(-c2ccccc2-c2nnn[nH]2)cc1 [drug A]
0.81: peptide 99910883 (Seq. ID No. 28)
1: peptide 99900220 (Seq. ID No. 1) | peptide 99900467 (Seq. ID No. 2) | peptide 99901399 (Seq. ID No. 3) | peptide 99902592 (Seq. ID No. 4) | peptide 99903025 (Seq. ID No. 5) | peptide 99904405 (Seq. ID No. 6) | peptide 99904666 (Seq. ID No. 7) | peptide 99905044 (Seq. ID No. 9) | peptide 99905274 (Seq. ID No. 11) | peptide 99905379 (Seq. ID No. 12) | peptide 99905509 (Seq. ID No. 14) | peptide 99905551 (Seq. ID No. 15) | peptide 99907275 (Seq. ID No. 17) | peptide 99907807 (Seq. ID No. 18) | peptide 99908755 (Seq. ID No. 19) | peptide 99908916 (Seq. ID No. 21) | peptide 99910002 (Seq. ID No. 23) | peptide 99910032 (Seq. ID No. 24) | peptide 99910407 (Seq. ID No. 25) | peptide 99910483 (Seq. ID No. 26) | peptide 99910554 (Seq. ID No. 27) | peptide 99911002 (Seq. ID No. 29) | peptide 99911415 (Seq. ID No. 31) | peptide 99911559 (Seq. ID No. 32) | peptide 99911777 (Seq. ID No. 33) | peptide 99912101 (Seq. ID No. 34) | peptide 99912366 (Seq. ID No. 36) | peptide 99912411 (Seq. ID No. 37) | peptide 99912661 (Seq. ID No. 38) | peptide 99913200 (Seq. ID No. 39) | peptide 99913322 (Seq. ID No. 40) | peptide 99914211 (Seq. ID No. 42) | peptide 99914445 (Seq. ID No. 43) | peptide 99914876 (Seq. ID No. 44) | peptide 99914887 (Seq. ID No. 45) | peptide 99914935 (Seq. ID No. 47) | peptide 99915778 (Seq. ID No. 50) | peptide 99915883 (Seq. ID No. 51) | peptide 99916177 (Seq. ID No. 53) | peptide 99916611 (Seq. ID No. 54) | peptide 99916615 (Seq. ID No. 55) | peptide 99916966 (Seq. ID No. 56) | peptide 99917280 (Seq. ID No. 59) | peptide 99917288 (Seq. ID No. 60) | peptide 99917419 (Seq. ID No. 61) | peptide 99917505 (Seq. ID No. 62) | peptide 99917596 (Seq. ID No. 63) | peptide 99917626 (Seq. ID No. 64) | peptide 99917690 (Seq. ID No. 65) | peptide 99917825 (Seq. ID No. 66) | peptide 99917890 (Seq. ID No. 67) | peptide 99917947 (Seq. ID No. 68) | peptide 99918831 (Seq. ID No. 69) | peptide 99918906 (Seq. ID No. 70) | peptide 99918909 (Seq. ID No. 71)
1.83: peptide 99915015 (Seq. ID No. 48)
1.15: peptide 99905423 (Seq. ID No. 13)
1.4: peptide 99904862 (Seq. ID No. 8)
1.27: peptide 99916170 (Seq. ID No. 52)
1.5: peptide 99905259 (Seq. ID No. 10)
0.64: peptide 99917047 (Seq. ID No. 57)
0.67: peptide 99914893 (Seq. ID No. 46) | peptide 99915755 (Seq. ID No. 49)
0.68: peptide 99913825 (Seq. ID No. 41)
0.65: peptide 99909059 (Seq. ID No. 22)
1.47: peptide 99906176 (Seq. ID No. 16)
1.49: peptide 99908795 (Seq. ID No. 20)
1.78: peptide 99912211 (Seq. ID No. 35)
0.74: peptide 99917221 (Seq. ID No. 58)
1.26: peptide 99911193 (Seq. ID No. 30)
